In US6872850B2, “Small molecule inhibitors of secretion of proteins encoded by ARE-mRNAs” (Message Pharmaceuticals, priority 2001, dated 2005):
“Also recorded” adds a separate entry of the source.

Key:
[1] = test system: TNFα; assay: ELISA of TNFα secreted into the media after LPS; type: cell-based; conditions: for effect on amount of secreted TNFα (direct TNFα secretion assay), in words: after LPS stimulation
Procedure: The ability of candidate compounds to reduce the amount of secreted TNFα was also directly tested using an ELISA assay. […] A standard ELISA analysis was used to measure the amount of TNFα secreted into the media (see, for example, Ausubel et al., supra). The effect of a candidate compound on TNFα secretion in this assay is reported in the following tables as a percentage of the amount of TNFα secreted by a control cell that was administered a DMSO vehicle control only.

[2] = test system: 3′ UTR of the TNFα gene; assay: cell-based luciferase reporter assay, 5B cell line (luciferase gene with entire 3′ UTR of the TNFα gene); design: species or system mouse; conditions: for Luciferase 5B (% of DMSO control): 1 h, then LPS, 5B cell line
Procedure: The candidate compounds were tested in a high-throughput, cell-based luciferase reporter assay. For this assay, a commercially available mouse macrophage Raw 264.7 cell line was stably transfected with a construct containing the CMV promoter operably linked to the luciferase gene which was modified using standard molecular biology techniques to contain the entire 3′ UTR of the TNFα gene. This 3′ UTR is important for the stability and translation of TNFα in cells. To control for effects of candidate compounds that are not specific for TNFα, a control cell line, called “3B,” was generated by stably transfecting the 264.7 cell line with a commercially available construct containing the luciferase gene (without the addition of the heterologous 3′ UTR of the TNFα gene) under the regulation of the CMV promoter.
[…] Then, lipopolysaccharide (LPS) was added to stimulate TNFα secretion. Luciferase activity was measured by determining the luminescence intensity due to the reaction of lucifern, ATP, Mg^2+, and molecular O2 (see, for example, Ausubel et al., supra). The luciferase activity in a cell incubated with a candidate compound was reported as a percentage of the luciferase activity for the corresponding cell incubated with DMSO vehicle only.
After correction for any effect caused by the administration of the DMSO only vehicle control, the effect of a candidate compound on luciferase activity in the 3B control cell line represents the global effect of the compound on any step required for expression or activity of luciferase protein, such as luciferase gene transcription, mRNA processing, mRNA stability, translation, protein stability, or enzymatic activity. […] In this case, the luciferase activity in the 5B cell line treated with the DMSO vehicle control is similar to the luciferase activity in the control 3B cell line treated with the candidate compound. Thus, the response of the 5B cell line (as a percent of the DMSO control) and the ratio of the luciferase activity in the 5B cell line (as a percent of the DMSO control) to the luciferase activity in the control 3B cell line (as a percent of the DMSO control) are similar. In desirable embodiments, the response of the 5B cell line and the 5B/3B ratio differ by less than 50, 40, 30, 20, 10, or 5%.

[3] = 10 μM compound, ratio of 5B to control 3B cell line

SMILES	TNFα Secretion (% of DMSO control) ([1]; 10 μM compound, 1 h, then LPS)	Luciferase 5B (% of DMSO control) ([2]; 10 μM compound)	Luciferase 5B/3B (% of DMSO control 5B)/(% of DMSO control 3B) [2, 3]	further results
CC(C)CC(NC(=O)c1ccc(C(=NNC(=N)N)c2ccccc2)cc1)C(=O)N1CCN(C(=O)C(CCc2ccccc2)NC(=O)c2ccc(C(=NNC(=N)N)c3ccccc3)cc2)CC1 (mixture of isomers) [MES 10194]	22 % of DMSO control	34 % of DMSO control	49 (% of DMSO control 5B)/(% of DMSO control 3B)	–
CC(C)CC(NC(=O)c1ccc(C(=NNC(=N)N)c2ccccc2)cc1)C(=O)N1CCN(C(=O)C(Cc2ccc3ccccc3c2)NC(=O)c2ccc(C(=NNC(=N)N)c3ccccc3)cc2)CC1 (mixture of isomers) [MES 10195]	33 % of DMSO control	36 % of DMSO control	82 (% of DMSO control 5B)/(% of DMSO control 3B)	–
CC(C)CC(NC(=O)c1ccccc1)C(=O)N1CCN(C(=O)C(Cc2ccccc2)NC(=O)c2ccc(C(=NNC(=N)N)c3ccccc3)cc2)CC1 (mixture of isomers) [MES 10222]	49 % of DMSO control	36 % of DMSO control	49 (% of DMSO control 5B)/(% of D	–
CC(C)CC(NC(=O)c1ccc(C(=NNC(=N)N)c2ccccc2)cc1)C(=O)N1CCN(C(=O)C(Cc2ccccc2)NC(=O)c2ccccc2)CC1 (mixture of isomers) [MES 10231]	49 % of DMSO control	34 % of DMSO control	33 (% of DMSO control 5B)/(% of D	–
CC(C)CC(NC(=O)c1ccc(C(=NNC(=N)N)c2ccccc2)cc1)C(=O)N1CCN(C(=O)C(Cc2ccccc2)NC(=O)c2ccc([N+](=O)[O-])cc2)CC1 (mixture of isomers) [MES 10233]	42 % of DMSO control	36 % of DMSO control	40 (% of DMSO control 5B)/(% of D	–
CC(C)CC(NC(=O)c1ccc(C(=NNC(=N)N)c2ccccc2)cc1)C(=O)N1CCN(C(=O)C(Cc2ccc(F)cc2)NC(=O)c2ccc(C(=NNC(=N)N)c3ccccc3)cc2)CC1 (mixture of isomers) [MES 10236]	34 % of DMSO control	18 % of DMSO control	25 (% of DMSO control 5B)/(% of DMSO control 3B)	–
COc1ccc(CC(NC(=O)c2ccc(C(=NNC(=N)N)c3ccccc3)cc2)C(=O)N2CCN(C(=O)C(CC(C)C)NC(=O)c3ccc(C(=NNC(=N)N)c4ccccc4)cc3)CC2)cc1 (mixture of isomers) [MES 10237]	39 % of DMSO control	20 % of DMSO control	27 (% of DMSO control 5B)/(% of DMSO control 3B)	–
CC(C)CC(NC(=O)c1ccc(C(=NNC(=N)N)c2ccccc2)cc1)C(=O)N1CCN(C(=O)C(CC2CCCCC2)NC(=O)c2ccc(C(=NNC(=N)N)c3ccccc3)cc2)CC1 (mixture of isomers) [MES 10238]	23 % of DMSO control	32 % of DMSO control	78 (% of DMSO control 5B)/(% of DMSO control 3B)	–
CC(=NNC(=N)N)c1cccc(C(=O)NC(CC(C)C)C(=O)N2CCN(C(=O)C(Cc3ccc(Cl)cc3)NC(=O)c3ccc(C(=NNC(=N)N)c4ccccc4)cc3)CC2)c1 (mixture of isomers) [MES 10258]	42 % of DMSO control	43 % of DMSO control	39 (% of DMSO control 5B)/(% of DMSO control 3B)	–
CC(=NNC(=N)N)c1cccc(C(=O)NC(CC(C)C)C(=O)N2CCN(C(=O)C(Cc3ccc(-c4ccccc4)cc3)NC(=O)c3ccc(C(=NNC(=N)N)c4ccccc4)cc3)CC2)c1 (mixture of isomers) [MES 10259]	36 % of DMSO control	22 % of DMSO control	38 (% of DMSO control 5B)/(% of DMSO control 3B)	–
CC(=NNC(=N)N)c1cccc(C(=O)NC(CC(C)C)C(=O)N2CCN(C(=O)C(Cc3ccc4ccccc4c3)NC(=O)c3ccc(C(=NNC(=N)N)c4ccccc4)cc3)CC2)c1 (mixture of isomers) [MES 10261]	40 % of DMSO control	76 % of DMSO control	71 (% of DMSO control 5B)/(% of DMSO control 3B)	–
CC(=NN=C(N)N)c1cccc(C(=O)NC(Cc2ccccc2)C(=O)N2CCN(C(=O)C(CC(C)C)NC(=O)c3ccc(C(=NN=C(N)N)c4ccccc4)cc3)CC2)c1 (mixture of isomers) [MES 11405]	55 % of DMSO control	39 % of DMSO control	49 (% of DMSO control 5B)/(% of D	effect on amount of secreted TNFα (direct TNFα secretion assay), in words [1]: decreased the amount of secreted TNFα; effect on luciferase activity in the 5B cell line (luciferase assay), in words [2]: decrease TNFα secretion
CC(=NNC(=N)N)c1ccc(C(=O)NC(Cc2ccccc2)C(=O)N2CCN(C(=O)C(CC(C)C)NC(=O)c3cccc(C(C)=NNC(=N)N)c3)CC2)cc1 (mixture of isomers) [MES 11452]	88 % of DMSO control	13 % of DMSO control	50 (% of DMSO control 5B)/(% of D	effect on amount of secreted TNFα (direct TNFα secretion assay), in words [1]: decreased the amount of secreted TNFα
CC(C)CC(NC(=O)c1ccc(C(=NN=C(N)N)c2ccccc2)cc1)C(=O)NCCCNC(=O)C(Cc1ccccc1)NC(=O)c1ccc(C(=NN=C(N)N)c2ccccc2)cc1 (mixture of isomers) [MES 11561]	41 % of DMSO control	24 % of DMSO control	26 (% of DMSO control 5B)/(% of D	effect on amount of secreted TNFα (direct TNFα secretion assay), in words [1]: decreased the amount of secreted TNFα; effect on luciferase activity in the 5B cell line (luciferase assay), in words [2]: decrease TNFα secretion; also recorded: greatest inhibition
CC(=NN=C(N)N)c1cccc(C(=O)NC(CC(C)C)C(=O)NCCCNC(=O)C(Cc2ccccc2)NC(=O)c2ccc(C(=NN=C(N)N)c3ccccc3)cc2)c1 (mixture of isomers) [MES 11562]	50 % of DMSO control	44 % of DMSO control	38 (% of DMSO control 5B)/(% of D	effect on amount of secreted TNFα (direct TNFα secretion assay), in words [1]: decreased the amount of secreted TNFα; effect on luciferase activity in the 5B cell line (luciferase assay), in words [2]: decrease TNFα secretion
C/C(=N\N=C(N)N)c1cccc(C(=O)NCCNC(=O)[C@H](Cc2ccccc2)NC(=O)c2ccc(/C(=N/N=C(N)N)c3ccccc3)cc2)c1.O=C(O)C(F)(F)F.O=C(O)C(F)(F)F [MES 10091, (E,E)-Bisguanylhydrazone of 1-[(S)-N-(4-benzoylbenzoyl)-2-amino-3-phenylpropanoyl]-4-(3-acetylbenzoyl)-1,4-diazabutane bis trifluoroacetate]	–	–	–	TNFα Secretion (% of DMSO control) ([1]; 1 μM compound (Table 11)): 97 % of DM80 control; TNFα Secretion (% of DMSO control) ([1]; 3 μM compound (Table 11)): 41 % of DM80 control; TNFα Secretion (% of DMSO control) ([1]; 10 μM compound (Table 11)): 22 % of DM80 control; Luciferase 5B/3B (% of DMSO control 5B)/(% of DMSO control 3B) ([2]; 1 μM compound (Table 11)): 113 (% of DMSO control 5B)/(% of D; Luciferase 5B/3B (% of DMSO control 5B)/(% of DMSO control 3B) ([2]; 3 μM compound (Table 11)): 68 (% of DMSO control 5B)/(% of D; Luciferase 5B/3B (% of DMSO control 5B)/(% of DMSO control 3B) ([2]; 10 μM compound (Table 11)): 73 (% of DMSO control 5B)/(% of D
C/C(=N\N=C(N)N)c1cccc(C(=O)NCCNC(=O)[C@H](Cc2ccccc2)NC(=O)c2ccc(/C(=N\N=C(N)N)c3ccccc3)cc2)c1.O=C(O)C(F)(F)F.O=C(O)C(F)(F)F [MES 10092, (1-Z,4-E)-Bisguanylhydrazone of 1-[(S)-N-(4-benzoylbenzoyl)-2-amino-3-phenylpropanoyl]-4-(3-acetylbenzoyl)-1,4-diazabutane bis trifluoroacetate]	–	–	–	TNFα Secretion (% of DMSO control) ([1]; 1 μM compound (Table 11)): 108 % of DM80 control; TNFα Secretion (% of DMSO control) ([1]; 3 μM compound (Table 11)): 81 % of DM80 control; TNFα Secretion (% of DMSO control) ([1]; 10 μM compound (Table 11)): 107 % of DM80 control; Luciferase 5B/3B (% of DMSO control 5B)/(% of DMSO control 3B) ([2]; 1 μM compound (Table 11)): 100 (% of DMSO control 5B)/(% of D; Luciferase 5B/3B (% of DMSO control 5B)/(% of DMSO control 3B) ([2]; 3 μM compound (Table 11)): 78 (% of DMSO control 5B)/(% of D; Luciferase 5B/3B (% of DMSO control 5B)/(% of DMSO control 3B) ([2]; 10 μM compound (Table 11)): 69 (% of DMSO control 5B)/(% of D
